The nature of the series: Permeability test with stationary Franz diffusion cell and human skin. It is filed as in vitro ADME. As to the method: The intramembrane concentrations of various water-soluble agents in the epidermis and dermis after 24 hours were measured using the following conditions and methods with a stationary Franz diffusion cell and human skin.
• Cell type: Stationary Franz diffusion cell (manufactured by Biocom Systems, Inc.) • Receptor well volume: 3.3 mL • Target skin area: 0.55 cm^2 • Membrane type: Human skin having a thickness of 300 μm (acquired from New York Firefighter's Skin Bank, Science Care, Allosource, or BioIVT) • Number of skin donors: 1 individual • Details of donors: Gender: male or female; age: from 30 to 70 years old; site: thigh or upper torso • Receptor fluid: Phosphate buffered saline (PBS) containing 0.01% w/w NaN3 (preservative)
The concentrations of water-soluble agents were measured in the receptor chamber of the diffusion cell at different time points. At the end of the diffusion test, the skin was sequentially tape-stripped and divided into epidermal and dermal layers. Concentrates of various water-soluble agents in each of the grouped tape strips and epidermal and dermal tissues were extracted using an extraction solvent and analyzed on an Agilent G6120 HPLC system equipped with an LC-MS detector.
The obtained skin was cryopreserved in a freezer at −20° C. until the morning of the test. Before use, the skin was removed from the freezer and completely thawed at room temperature. Only visually intact areas of the skin were used during testing.
The receptor fluid was prepared at the appropriate pH and degassed by filtering the receptor fluid through a ZapCap (registered trademark) CR 0.2 μm membrane while vacuuming.
The diffusion cell was assembled according to (1) to (10) below. […]
Once the cell was assembled and the skin was hydrated for 20 minutes, a tritiated water test was performed to assess the barrier integrity of each skin piece before applying the test sample to the skin. Skin barrier integrity was evaluated according to (a) to (i) below. […]

Peptide text beside a SMILES is read from it.

Take `COc1ccc(C(=O)[O-])c(O)c1.[K+]` [potassium 4-methoxysalicylate]: the “Distribution in the skin when it permeates the skin” value (from body-correcting-film forming agent, Table 1) is listed as “tends to remain in the epidermis”.

Turning to `NCC(=O)NCC(=O)O` [glycylglycine] (H-Gly-Gly-OH), for the setting “dosage form of the second agent is an oil-in-water emulsion composition”, the Skin permeability result was “skin permeability is further improved”.

With `NC(=O)c1cccnc1` [nicotinic acid amide, reference compound], the Skin permeability entry (dosage form of the second agent is a water-in-oil emulsion composition) is listed as “skin permeability is further improved”.
